Measured values: patent publication US20220177818A1, “OPERATION PROCESS FOR A CELL CULTIVATION SYSTEM” (THE AUTOMATION PARTNERSHIP (CAMBRIDGE ) LTD., priority 2019, published 2022)

System: fucosyltransferase
Test: Feedback experiment: glycan profile of the monoclonal antibody from parallel CHO-bioreactor cultivations after feeding the inhibitor
Type: cell-based
Settings: Day 12 (end of cultivation), inhibitor in feed once per day from day 4; average of all 3 cultivations; relative to total measured glycans
From the text: In said experiment, parallel CHO-bioreactor cultivations producing a monoclonal antibody were started.
Values are in relative to the total amount of measured glycans. The different glycan profile abbreviations are explained in FIG. 7B. […] A decision was taken to reduce the fucosylated species, for example in order to increase ADCC potency (see e.g. Peipp et al 2008).
For this reason, the feeding strategy was adapted to contain an inhibitor of fucosyltransferase (2F-Peracetly-Fucose) in the feed (73). The feed was administered once per day throughout the experiment. Process samples were taken at the end of cultivation (day 12) and analyzed to check for the effect of the altered feeding strategy and compared to data from standard cultivations (74).

Structure (SMILES): CC(=O)OC1O[C@@H](C)[C@@H](OC(C)=O)[C@@H](OC(C)=O)[C@@H]1F (stereo partly drawn) [2F-Peracetly-Fucose, 2F-Peracetyl-Fucose]
- percentage distribution of analyzed glycans: FA2: 7,3%
- percentage distribution of analyzed glycans: FA2G1: 2,6%
- percentage distribution of analyzed glycans: FA2G2: 0,26%
